Laboratory results from the NIST ThermoML archive (doi:10.1021/acs.jced.5b00934).

Conditions: Liquid, Vibrating tube method

CC(C)(C)O [2-methylpropan-2-ol]
Conditions	mass density [kg/m3]
303.15 K, 99 kPa	775.3
303.15 K, 298 kPa	775.5
303.15 K, 499 kPa	775.7
303.15 K, 898 kPa	776.1
303.15 K, 1002 kPa	776.2
303.15 K, 2007 kPa	777.1
303.15 K, 3007 kPa	778.1
303.15 K, 4999 kPa	780
303.15 K, 7003 kPa	781.9
303.15 K, 8992 kPa	783.7
303.15 K, 10005 kPa	784.6
303.15 K, 11999 kPa	786.3
308.15 K, 97 kPa	770.2
308.15 K, 298 kPa	770.4
308.15 K, 500 kPa	770.6
308.15 K, 897 kPa	771
308.15 K, 1002 kPa	771.1
308.15 K, 2009 kPa	772.1
308.15 K, 3000 kPa	773.1
308.15 K, 5006 kPa	775.1
308.15 K, 9006 kPa	778.8
308.15 K, 10007 kPa	779.7
308.15 K, 12005 kPa	781.5
308.15 K, 15021 kPa	784.1
308.15 K, 19998 kPa	788.2
308.15 K, 22003 kPa	789.8
308.15 K, 24990 kPa	792.2
308.15 K, 28006 kPa	794.5
308.15 K, 30005 kPa	796
308.16 K, 7005 kPa	777
308.16 K, 18006 kPa	786.6
313.15 K, 99 kPa	764.8
313.15 K, 298 kPa	765
313.15 K, 502 kPa	765.2
313.15 K, 904 kPa	765.7
313.15 K, 1009 kPa	765.8
313.15 K, 2016 kPa	766.8
313.15 K, 3006 kPa	767.8
313.15 K, 5010 kPa	769.9
313.15 K, 7006 kPa	771.8
313.15 K, 9005 kPa	773.7
313.15 K, 10007 kPa	774.7
313.15 K, 12005 kPa	776.5
313.15 K, 15005 kPa	779.2
313.15 K, 18003 kPa	781.8
313.15 K, 20015 kPa	783.5
313.15 K, 22002 kPa	785.1
313.15 K, 25007 kPa	787.5
313.15 K, 28002 kPa	789.9
313.15 K, 30000 kPa	791.4
313.15 K, 33001 kPa	793.7
313.15 K, 33012 kPa	793.6
313.15 K, 34006 kPa	794.4
313.15 K, 35008 kPa	795.1
313.15 K, 38012 kPa	797.2
313.15 K, 40002 kPa	798.6
313.15 K, 42007 kPa	800
313.15 K, 44997 kPa	802
313.16 K, 32001 kPa	792.9
318.15 K, 100 kPa	759.4
318.15 K, 298 kPa	759.6
318.15 K, 498 kPa	759.8
318.15 K, 901 kPa	760.3
318.15 K, 1006 kPa	760.4
318.15 K, 2001 kPa	761.5
318.15 K, 3003 kPa	762.6
318.15 K, 5002 kPa	764.7
318.15 K, 7005 kPa	766.7
318.15 K, 8999 kPa	768.7
318.15 K, 10002 kPa	769.7
318.15 K, 11999 kPa	771.6
318.15 K, 15010 kPa	774.4
318.15 K, 17998 kPa	777
318.15 K, 20006 kPa	778.8
318.15 K, 21999 kPa	780.5
318.15 K, 24994 kPa	782.9
318.15 K, 28005 kPa	785.4
318.15 K, 30001 kPa	787
318.15 K, 32001 kPa	788.5
318.15 K, 32993 kPa	789.3
318.15 K, 33002 kPa	789.3
318.15 K, 34010 kPa	790
318.15 K, 35001 kPa	790.8
318.15 K, 38000 kPa	793
318.15 K, 40010 kPa	794.4
318.15 K, 42021 kPa	795.9
318.15 K, 45005 kPa	797.9
318.15 K, 47997 kPa	799.9
318.15 K, 49998 kPa	801.3
318.15 K, 52004 kPa	802.6
318.15 K, 55002 kPa	804.6
318.15 K, 57994 kPa	806.5
318.15 K, 60002 kPa	807.7
323.15 K, 99 kPa	753.9
323.15 K, 298 kPa	754.1
